According to ChEMBL document CHEMBL3286379, “Design and synthesis of pyrimidine molecules endowed with thiazolidin-4-one as new anticancer agents” (Eur J Med Chem, 2014):

How the values were obtained:
Type in all cases: functional
SNB-19 = experiment: Growth inhibition of human SNB19 cells assessed as cell growth at 10 uM after 48 hrs by sulforhodamine B assay relative to control; conditions: SNB-19, 48 h, read-out: Activity
NCI-H23 = experiment: Growth inhibition of human NCI-H23 cells assessed as cell growth at 10 uM after 48 hrs by sulforhodamine B assay relative to control; conditions: NCI-H23, 48 h, read-out: Activity
SK-MEL-5 = experiment: Growth inhibition of human SK-MEL-5 cells assessed as cell growth at 10 uM after 48 hrs by sulforhodamine B assay relative to control; conditions: SK-MEL-5, 48 h, read-out: Activity
HT-29 = experiment: Growth inhibition of human HT-29 cells assessed as cell growth at 10 uM after 48 hrs by sulforhodamine B assay relative to control; conditions: HT-29, 48 h, read-out: Activity
A549 = experiment: Growth inhibition of human A549/ATCC cells assessed as cell growth at 10 uM after 48 hrs by sulforhodamine B assay relative to control; conditions: A549, 48 h, read-out: Activity
NCI-H226 = experiment: Growth inhibition of human NCI-H226 cells assessed as cell growth at 10 uM after 48 hrs by sulforhodamine B assay relative to control; conditions: NCI-H226, 48 h, read-out: Activity
CCRF-CEM = experiment: Growth inhibition of human CCRF-CEM cells assessed as cell growth at 10 uM after 48 hrs by sulforhodamine B assay relative to control; conditions: read-out: Activity
SR = experiment: Growth inhibition of human SR cells assessed as cell growth at 10 uM after 48 hrs by sulforhodamine B assay relative to control; conditions: read-out: Activity
SN12C = experiment: Growth inhibition of human SN12C cells assessed as cell growth at 10 uM after 48 hrs by sulforhodamine B assay relative to control; conditions: read-out: Activity
HL-60(TB) = experiment: Growth inhibition of human HL-60(TB) cells assessed as cell growth at 10 uM after 48 hrs by sulforhodamine B assay relative to control; conditions: HL-60, 48 h, read-out: Activity
[1] = Growth inhibition of human OVCAR8 cells assessed as cell growth at 10 uM after 48 hrs by sulforhodamine B assay relative to control; conditions: OVCAR-8, 48 h, read-out: Activity
M14 = experiment: Growth inhibition of human M14 cells assessed as cell growth at 10 uM after 48 hrs by sulforhodamine B assay relative to control; conditions: M14, 48 h, read-out: Activity
[2] = Growth inhibition of human UACC257 cells assessed as cell growth at 10 uM after 48 hrs by sulforhodamine B assay relative to control; conditions: UACC-257, 48 h, read-out: Activity
MDA-MB-468 = experiment: Growth inhibition of human MDA-MB-468 cells assessed as cell growth at 10 uM after 48 hrs by sulforhodamine B assay relative to control; conditions: MDA-MB-468, 48 h, read-out: Activity
SK-OV-3 = experiment: Growth inhibition of human SKOV3 cells assessed as cell growth at 10 uM after 48 hrs by sulforhodamine B assay relative to control; conditions: SK-OV-3, 48 h, read-out: Activity
[3] = Growth inhibition of human HCC2998 cells assessed as cell growth at 10 uM after 48 hrs by sulforhodamine B assay relative to control; conditions: HCC 2998, 48 h, read-out: Activity
HOP-62 = experiment: Growth inhibition of human HOP62 cells assessed as cell growth at 10 uM after 48 hrs by sulforhodamine B assay relative to control; conditions: HOP-62, 48 h, read-out: Activity
PC-3 = experiment: Growth inhibition of human PC3 cells assessed as cell growth at 10 uM after 48 hrs by sulforhodamine B assay relative to control; conditions: PC-3, 48 h, read-out: Activity
[4] = Growth inhibition of human UO31 cells assessed as cell growth at 10 uM after 48 hrs by sulforhodamine B assay relative to control; conditions: UO-31, 48 h, read-out: Activity
K562 = experiment: Growth inhibition of human K562 cells assessed as cell growth at 10 uM after 48 hrs by sulforhodamine B assay relative to control; conditions: K562, 48 h, read-out: Activity
[5] = Growth inhibition of human BT549 cells assessed as cell growth at 10 uM after 48 hrs by sulforhodamine B assay relative to control; conditions: BT-549, 48 h, read-out: Activity
RPMI-8226 = experiment: Growth inhibition of human RPMI8226 cells assessed as cell growth at 10 uM after 48 hrs by sulforhodamine B assay relative to control; conditions: RPMI-8226, 48 h, read-out: Activity
[6] = Growth inhibition of human UACC62 cells assessed as cell growth at 10 uM after 48 hrs by sulforhodamine B assay relative to control; conditions: UACC-62, 48 h, read-out: Activity
[7] = Growth inhibition of human SF539 cells assessed as cell growth at 10 uM after 48 hrs by sulforhodamine B assay relative to control; conditions: SF-539, 48 h, read-out: Activity
MDA-MB-435 = experiment: Growth inhibition of human MDA-MB-435 cells assessed as cell growth at 10 uM after 48 hrs by sulforhodamine B assay relative to control; conditions: MDA-MB-435, 48 h, read-out: Activity
HCT-116 = experiment: Growth inhibition of human HCT116 cells assessed as cell growth at 10 uM after 48 hrs by sulforhodamine B assay relative to control; conditions: HCT-116, 48 h, read-out: Activity
SNB-75 = experiment: Growth inhibition of human SNB75 cells assessed as cell growth at 10 uM after 48 hrs by sulforhodamine B assay relative to control; conditions: SNB-75, 48 h, read-out: Activity
DU-145 = experiment: Growth inhibition of human DU145 cells assessed as cell growth at 10 uM after 48 hrs by sulforhodamine B assay relative to control; conditions: DU-145, 48 h, read-out: Activity
NCI-H522 = experiment: Growth inhibition of human NCI-H522 cells assessed as cell growth at 10 uM after 48 hrs by sulforhodamine B assay relative to control; conditions: NCI-H522, 48 h, read-out: Activity
[8] = Growth inhibition of human NCI-ADR-RES cells assessed as cell growth at 10 uM after 48 hrs by sulforhodamine B assay relative to control; conditions: read-out: Activity
U-251 = experiment: Growth inhibition of human U251 cells assessed as cell growth at 10 uM after 48 hrs by sulforhodamine B assay relative to control; conditions: U-251, 48 h, read-out: Activity
[9] = Growth inhibition of human OVCAR3 cells assessed as cell growth at 10 uM after 48 hrs by sulforhodamine B assay relative to control; conditions: OVCAR-3, 48 h, read-out: Activity
[10] = Growth inhibition of human MOLT4 cells assessed as cell growth at 10 uM after 48 hrs by sulforhodamine B assay relative to control; conditions: MOLT-4, 48 h, read-out: Activity
SK-MEL-2 = experiment: Growth inhibition of human SK-MEL-2 cells assessed as cell growth at 10 uM after 48 hrs by sulforhodamine B assay relative to control; conditions: SK-MEL-2, 48 h, read-out: Activity

Nc1nc(-c2ccccc2Cl)cc(-c2ccc(Cl)cc2Cl)n1
growth at 10 µM (SNB-19): 78.2% | growth at 10 µM (NCI-H23): 75.4% | growth at 10 µM (SK-MEL-5): 75.2% | growth at 10 µM (HT-29): 36.6% | growth at 10 µM (A549): 52.7% | growth at 10 µM (NCI-H226): 87.7% | growth at 10 µM (CCRF-CEM): 57.5% | growth at 10 µM (SR): 25.4% | growth at 10 µM (SN12C): 79.6% | growth at 10 µM (HL-60(TB)): 51.4% | growth at 10 µM [1]: 71.2% | growth at 10 µM (M14): 53.5% | growth at 10 µM [2]: 93% | growth at 10 µM (MDA-MB-468): 18.6% | growth at 10 µM (SK-OV-3): 93% | growth at 10 µM [3]: 83.6% | growth at 10 µM (HOP-62): 76.2% | growth at 10 µM (PC-3): 74.2% | growth at 10 µM [4]: 62.5% | growth at 10 µM (K562): 27.3% | growth at 10 µM [5]: 75.3% | growth at 10 µM (RPMI-8226): 35.2% | growth at 10 µM [6]: 63.1% | growth at 10 µM [7]: 72.2% | growth at 10 µM (MDA-MB-435): 0.07% | growth at 10 µM (HCT-116): 33% | growth at 10 µM (SNB-75): 30.5% | growth at 10 µM (DU-145): 91.4% | growth at 10 µM (NCI-H522): 68.5% | growth at 10 µM [8]: 79.8% | growth at 10 µM (U-251): 65% | growth at 10 µM [9]: 85.2% | growth at 10 µM [10]: 52.6% | growth at 10 µM (SK-MEL-2): 96.2%
